Patent US20070060636A1, “High enantiomeric purity dexanabinol for pharmaceutical compositions” (priority 2002, published 2007)

Tests used:
[1] = single dose toxicity and pharmacokinetics, rabbit; format: in vivo, New Zealand White rabbits; details: for AUC(0-inf) / Cmax: plasma, single i.v. 25 mg/kg (NOAEL); for AUC∞ Ratio to Phase I / Cmax Ratio to Phase I / Cmax Ratio to Phase II: single i.v. 25 mg/kg; for AUC∞ Ratio to Phase I / Cmax Ratio to Phase I: vs human 150 mg Phase I; for Cmax Ratio to Phase II: vs human 150 mg Phase II
Experimental: (§1) The pharmacokinetics of dexanabinol of high enantiomeric purity formulated in CREMOPHOR EL®:ethanol as described in Example 4 were investigated in rats, rabbits, and monkeys following intravenous administration of single doses, and 14 and 28 days of repeated dosing. Human pharmacokinetics was studied during Phase I and Phase II clinical studies. Dexanabinol used in the pharmacokinetic studies was formulated as drug concentrates of 50 and 100 mg/ml and diluted with sterile 0.9% NaCl solution prior to intravenous (i.v.) administration to the desired final doses. Determination of dexanabinol concentrations in plasma and brain extracts was carried out using a validated Gas Chromatography-Mass Spectra (GC-MS) assay following solid phase extraction of the drug and derivatization. The limit of quantitation of the assay is 0.1 ng/ml.
(§2) Pharmacokinetic parameters were estimated by a non-compartmental method using WinNonlin Professional version 3.2 (Pharsight Corp., Mountain View, Calif.). The maximum plasma concentration (Cmax), when the drug is administered by infusion, is the concentration at the end of infusion. The Cmax following intravenous bolus administration is the value estimated by the software to be the concentration at t=0. The terminal slope (X) was estimated by linear regression through the last time points and used to calculate the terminal half-life (t1/2) from the following equation: t1/2=0.693/λ The area under the curve from time of dosing through the last time point (AUCz) was calculated by the linear trapezoid method. The AUC extrapolated to infinity (AUC∞) was calculated from the following equation: AUC∞=AUCz+Cz/λ where Cz is the concentration at the last time point predicted by the linear regression. AUC∞ was normalized for dose (mg/kg) and presented as AUC∞/Dose. Mean residence time (MRT), when the drug is administered by infusion is described by the following equation: MRT=(AUMC/AUC)−(TI)/2 Mean residence time after i.v. bolus administration is described by the following equation: MRT=(AUMC/AUC) where AUMC is the area under the first moment curve and TI is the length of infusion. Plasma clearance (CL), and the apparent volume of distribution at steady state (Vss) were calculated from the following equations: CL=Dose/AUC∞ Vss=MRT×CL
(§3) Table 6 summarizes the maximum plasma concentration (Cmax) and the area under the plasma concentration versus time curve (AUC) observed at the NOAEL doses cited above, as well as the animal to human exposure ratios (ER) for dexanabinol of high enantiomeric purity, expressed as the ratio of the pharmacokinetic (PK) parameter to that observed for a 150 mg dose in a Phase I study in human volunteers and in Phase II study in patients suffering from severe traumatic brain injury (TBI).

[2] = single dose toxicity and pharmacokinetics, rat; format: in vivo, Sprague Dawley rats; details: for AUC(0-inf) / Cmax: Sprague Dawley, plasma, single i.v. 50 mg/kg (NOAEL); for AUC∞ Ratio to Phase I / Cmax Ratio to Phase I / Cmax Ratio to Phase II: single i.v. 50 mg/kg; for AUC∞ Ratio to Phase I / Cmax Ratio to Phase I: vs human 150 mg Phase I; for Cmax Ratio to Phase II: vs human 150 mg Phase II
Experimental: as §1, §2, §3

[3] = plasma and brain concentrations after bolus i.v. 4 mg/kg; format: in vivo, Sprague Dawley rats
Experimental: as §1
Brain pharmacokinetic parameters in animal studies were estimated by non-compartmental methods similar to those used for plasma data with the addition of an estimate of the time of maximum concentration (Tmax) which was assumed to be zero for the plasma data. Cmax is the concentration corresponding to Tmax. AUCz and AUC∞ were calculated as described above. Kp, brain-to-plasma partition coefficient, was determined by means of the area method and using the equation: Kp=AUC∞ brain/AUC∞ plasma […]

[4] = oral bioavailability, hard gelatin capsules, minipig model; format: in vivo; details: plasma, 40 mg/kg
Experimental: The percentage of oral bioavailability was calculated using the following equation: % F=[AUCoral/Doseoral]/[AUCIV/DoseIV] Non-human Pharmacokinetic Studies.
Dexanabinol of high enantiomeric purity (lot # AC9001HU) filled in hard gelatin capsules have shown good oral bioavailability. A pharmacokinetic study for oral bioavailability of dexanabinol in large animals using the minipig model (the best animal model for oral absorption of drugs) was carried out. The animals (n=3) after 8 hours of food deprivation were administered orally with hard gelatin capsules containing dexanabinol of high enantiomeric purity at a dose of 40 mg/kg. Dexanabinol plasma levels were determined using a validated GC-MS assay up to 48 hours following administration. […] Pharmacokinetic analysis was done using the non-compartmental model analysis (WinNonlin software). Linear trapezoidal rule was used to compute AUC and AUMC.

[5] = New Zealand White, iv, rabbit female
[6] = New Zealand White, iv, rabbit male
[7] = both sexes, New Zealand White, iv, rabbit male & female

## CCCCCCC(C)(C)c1cc(O)c2c(c1)OC(C)(C)[C@H]1CC=C(CO)C[C@H]21 [dexanabinol, 1,1-dimethylheptyl-(3S,4S)-7-hydroxy-Δ^6-tetrahydrocannabinol]
[1]; [5]
  AUC(0-inf): 16.2 µg·h/mL
  Cmax: 34.5 µg/mL
[1]; [6]
  AUC(0-inf): 20.1 µg·h/mL
  Cmax: 33.8 µg/mL
[1]; New Zealand White, rabbit, in vivo, iv, single dose i.v., read-out: no observed adverse effect level (NOAEL)
  NOAEL: 25 mg/kg
[1]; [7]
  AUC(0-inf): 18.2 µg·h/mL
  Cmax: 33.4 µg/mL
[1]; rabbit female
  AUC∞ Ratio to Phase I: 5.1
  Cmax Ratio to Phase I: 6.9
  Cmax Ratio to Phase II: 17.6
[1]; rabbit male & female
  AUC∞ Ratio to Phase I: 5.7
  Cmax Ratio to Phase I: 6.7
  Cmax Ratio to Phase II: 17.0
[1]; rabbit male
  AUC∞ Ratio to Phase I: 6.3
  Cmax Ratio to Phase I: 6.8
  Cmax Ratio to Phase II: 17.2
[2]; iv, rat female
  AUC(0-inf): 173 µg·h/mL
  Cmax: 38.8 µg/mL
[2]; iv, rat male
  AUC(0-inf): 67.5 µg·h/mL
  Cmax: 102 µg/mL
[2]; Sprague-Dawley, rat, in vivo, iv, single dose i.v., read-out: no observed adverse effect level (NOAEL)
  NOAEL: 50 mg/kg
[2]; rat female
  AUC∞ Ratio to Phase I: 54.0
  Cmax Ratio to Phase I: 7.7
  Cmax Ratio to Phase II: 19.7
[2]; rat male
  AUC∞ Ratio to Phase I: 21.0
  Cmax Ratio to Phase I: 20.4
  Cmax Ratio to Phase II: 51.9
[3]; male and female averaged
  time after injection at which brain concentrations equilibrated with plasma concentration: about 30 minutes
[3]; plasma
  differences between genders in some plasma pharmacokinetic parameters: 2-3 fold
[4]; n=3
  AUC: 4.21 µg·h/mL
  Cmax: 0.271 ± 0.102 µg/mL
  MRT: 12.1 ± 1.15 h
  half-life: 7.47 ± 1.06 h
[4]; oral, n=3, read-out: % F (oral bioavailability compared to i.v. injection)
  bioavailability: ~12%
